Measured values as given in patent US8748369B2, “Use of targeted nitroxide agents in bone healing” (University of Pittsburgh-Of the Commonwealth System of …, priority 2009, dated 2014).
Where a SMILES comes first, the peptide text is derived from it. [ ]: non-standard residue; d: D form. The star is where a group is joined. NH(TEMPO-4-yl) = CC1(C)CC(N*)CC(C)(C)N1[O]; Orn = NCCC[C@H](N)C(=O)O; Cbz = O=C(OCc1ccccc1)*; Boc = CC(C)(C)OC(=O)*

Key:
[1] = system: mice exposed to total body irradiation; experiment: Survival of mice after total body irradiation; type: in vivo, mouse
Protocol: Mice received intraperitoneal injection of 10 mg. per kilogram of each of the chemicals indicated in FIG. 5, then 24 hours later received 9.75 Gy total body irradiation according to published methods. Mice were followed for survival according to IACUC regulations. […] (P=0.0008).
Groups of 15 mice received intraperitoneal injection of 10 mg. per kilogram of each indicated GS-nitroxide compound or carrier (Cremphora plus alcohol at 1 to 1 ratio, then diluted 1 to 10 in distilled water). Mice received 10 mg per kilogram intra-peritoneal injection 24 hours prior to total body irradiation. Control mice received radiation alone. […] (P=0.0005)

mouse embryonic cells = experiment: Gamma irradiation induced apoptosis (cytochrome c release, PS externalization); type: cell-based
Protocol: Externalization of PS was analyzed by flow cytometry using annexin-V kit. Briefly, harvested cells were stained with annexin-V-FITC and PI for 5 min in dark prior to flow cytometry analysis. Ten thousand events were collected on a FACScan flow cytometer (Becton-Dickinson) supplied with CellQuest software.
(A) XJB-5-125 blocks γ-irradiation induced accumulation of cytochrome c in the cytosol of mouse embryonic cells. (B) Densitometry ratio of cytochrome c/actin. Semi-quantitation of the bands was carried out by densitometry using Labworks Image Acquisition and Analysis Software (UVP, Upland, Calif.). The level of cytochrome c release was expressed as the mean densitometry ratio of cytochrome c over actin. (C) Dose (5, 10 and 20 μM) dependent radioprotective effect of XJB-5-125 (pre-treatment) on γ-irradiation (10 Gy) induced phosphatidylserine (PS) externalization. After 48 h post-irradiation incubation, cells were harvested and stained with annexin-V-FITC and propodium iodide (PI) prior to flow cytometry analysis. (D) Time (2, 3, 4, 5, and 6 h) dependent radioprotective effect of XJB-5-125 (20 μM) on γ-irradiation (10 Gy) induced PS externalization (48 h post irradiation) in mouse embryonic cells. […] Externalization of PS was analyzed 72 h post-irradiation exposure. […]

[2] = system: mouse embryonic cells, mitochondria; experiment: EPR-based analysis of integration and distribution of nitroxides (Example 9); type: cell-based; conditions: 10 μM nitroxides for 10 min
Protocol: To compare the integration efficiency, mouse embryonic cells (1×10^7/mL) were incubated with 10 μM nitroxides for 10 min. ESR spectra of nitroxide radicals in the incubation medium, cell suspension or mitochondrial suspension were recorded after mixing with acetonitrile (1:1 v/v) after 5-min incubation with 2 mM K3Fe(CN)6 using JEOL-RE1X EPR spectrometer under the following conditions: 3350 G center field; 25 G scan range; 0.79 G field modulation, 20 mW microwave power; 0.1 s time constant; 4 min scan time. Integration efficiency was calculated as (Einitial−Emedium)/Einitial×100%. Mitochondria were isolated using a mitochondria isolation kit (Pierce, Rockford, Ill.) according to the manufacturer's instruction. Amounts of nitroxide radicals integrated into mitochondria were normalized to the content of cytochrome c oxidase subunit IV.

Structure (SMILES)	survival of mice exposed to 9.75 Gy total body irradiation ([1]; 10 mg per kilogram intraperitoneal 24 hours before irradiation)	survival of mice exposed to 9.5 Gy total body irradiation ([1]; 10 mg per kilogram intraperitoneal 24 hours prior to irradiation)	gamma irradiation induced apoptosis (mouse embryonic cells; 10 Gy)	γ-irradiation induced accumulation of cytochrome c in the cytosol (mouse embryonic cells; mouse embryonic cells)	integration into cells and mitochondria compared with non-conjugated 4-amino-TEMPO [2]
CC(C)C[C@@H](/C=C/CC(=O)NC1CC(C)(C)N([O])C(C)(C)C1)NC(=O)OC(C)(C)C [JP4-039, (S,E)-5-(tert-Butoxycarbonylamino)-7-methyloct-3-enoic acid-TEMPO]	significant increase in survival	increases survival	–	–	–
CC(C)C[C@H](NC(=O)OC(C)(C)C)C(=O)N[C@H](Cc1ccccc1)C(=O)N1CCC[C@H]1C(=O)N[C@H](C(=O)N[C@@H](CCCNC(=O)OCc1ccccc1)C(=O)NC1CC(C)(C)N([O])C(C)(C)C1)C(C)C [XJB-5-125] (Boc-L[dF]PV[Orn](Cbz)-{NH(TEMPO-4-yl)})	–	–	protects	blocks	much more efficiently
